{"source": "patent US10653680B2", "about": "“Treatment of impulsivity-related disorders” (OXFORD UNIVERSITY INNOVATION LIMITED, priority 2016, dated 2020)", "key": {"healthy participants": {"tested_on": "healthy participants", "assay": "Cambridge Gambling Task (CGT)", "format": "in vivo, human", "protocol": "Twenty healthy participants (7 females, 13 males; mean age 25.1 years, range 20-38 years; mean BMI 22.7 kg/m^2, range 18.7-30.0 kg/m^2) were included in the study after giving full informed written consent.\nEbselen capsules and identical matching placebo (containing microcrystalline cellulose) were purchased from Shasun Pharmaceuticals Ltd. Participants were tested twice (seven days apart) receiving on one occasion ebselen and, on the other, placebo in a randomised, double-blind, cross-over design. Ebselen was administered in 6×200 mg capsules in three doses given over two days. The order of receiving either the ebselen or the placebo was randomised.\nOn the day before cognitive testing, participants took the first dose at 1 pm and the second dose at 10 pm. The final dose was taken around 3 hrs prior to cognitive testing. Participants were sent text message reminders a few minutes before they were due to take medication, and were asked to confirm receipt of the messages. The cognitive tasks were carried out immediately after a magnetic resonance spectroscopy study.\nThe Cambridge Gambling Task (CGT) from the Cambridge Neuropsychological Test Automated Battery (CANTAB, version 3.0.0, Cambridge Cognition Ltd., Cambridge, UK) (Rogers et al.; Neuropsychopharmacology, 1999, 20, 322-333; Clark et al.; Brain, 2008, 131, 1311-1322) assesses decision-making and risk-taking behaviour outside a learning context. In each trial, participants are shown ten boxes at the top of the screen, with some boxes being red and some being blue. The ratio of red to blue boxes varies from 9:1; 8:2; 7:3; 6:4; 5:5 and vice versa in a pseudo-random order.\nParticipants are informed that a yellow token is hidden inside one of the boxes and asked to indicate the colour box in which the token is most likely to be hidden, by pressing the colour (RED or BLUE) in a response panel at the bottom of the screen. Following their response, the participants indicate confidence in their selection by betting a proportion of points they are allocated (starting with 100 points). […] On each trial five bets are offered, and each bet represents a fixed percentage of the current total points score (5, 25, 50, 75 and 95%). Possible bets are presented sequentially in a box on the right of the display and participants touch the box to select the bet. If correct, the bet value is added to their total points on the left of the panel, and if incorrect, it is subtracted from the total points.\nParticipants are asked to accumulate as many points as possible. […] Participants perform the task in four blocks of two separate conditions, ascending and descending bet value (the condition order is counterbalanced across participants). In the ascending condition, bets increase at 2.5 s time intervals from 5% to 95% until participants make their selection. This means that if a participant bets at the first value presented, then they bet only 5% of their total points, and if they wait for the highest value, they bet 95% of their total points. In the descending condition bets start from 95% and decrease to 5%. Low bets in the ascend condition and high bets in the descend condition reveal an impulsive betting strategy, while high bets in both conditions reveal a risk taking or reward seeking strategy.\nFrom the first stage of the task (selecting the likely colour of the box in which the token is hidden), the outcome measures are deliberation time and quality of decision making. Deliberation time is the mean latency from presentation of coloured boxes to participant selection. Quality of decision making refers to the proportion of trials on which the more likely outcome is chosen. From the gamble stage, the outcome measures are risk taking, risk adjustment and delay aversion. Risk taking refers to the mean proportion of current points that the subject stakes on each gamble when the more likely outcome is selected, and can be regarded as an index of reward seeking or loss aversion. […]"}, "rats [1]": {"tested_on": "rats", "assay": "Rodent Gambling Task (rGT)", "format": "in vivo, rats (males; Long Evans)", "protocol": "Testing was carried out in Vancouver (Canada) using rats (males; Long Evans from Charles River) which were given at least two weeks to acclimatise to the animal facility. They were housed in pairs on a 12 hour reverse light-dark cycle (lights off at 7 am). In the second week of acclimatisation, rats were handled briefly each day. […] For each task, there was then a habituation session to the operant boxes before training began.\nEbselen, cocaine and 2,5-dimethoxy-4-iodoamphetamine (DOI) were obtained from Sigma Aldrich, and MDL 100,907 was obtained from Tocris. Ebselen was dissolved in 0.5M DMSO and made up to injection volume (8 ml/kg) using 4% cyclodextrin. Cocaine and DOI were dissolved in 0.9% saline. MDL 100,907 was dissolved in 0.9% saline and the pH was adjusted to 6.25 using 1M NaOH and 0.1M HCl.\nAll data for the cognitive tasks are presented as mean+SEM change from baseline: • performance on drug day−performance on the previous day\nThe data were analysed with repeated measures ANOVA with dose as a within-subject factor. Where appropriate, post-hoc analysis was performed using Student's paired t-test.\nThe Latin square design (for both the 5-CSRTT and rGT experiments) was counterbalanced, based on performance in the last training day of each task. A one week wash-out period was given between drug-administration days. A baseline session was performed both the day before and the day after treatment to ensure stable off-drug performance.\nThis was performed as described previously (Zeeb et al; Neuropsychopharmacology, 2009, 34(10), 2329-2343), and is illustrated schematically in FIG. 2. Twenty one rats were trained to respond in standard 5-CSRTT boxes. Once reliable responding was established, different reward contingencies were associated with four nose-poke apertures (the central aperture was not used in this task). In each case, the reward size and probability of outcome differed between the choices. When no reward was delivered, a fixed-length time-out was delivered. The length of this time-out was varied between choices, with the longest time-out being associated with the largest, least likely reward. […] On the other 20% of occasions, a 10 second time-out was initiated. Once stable performance was achieved, rats were administered ebselen (2, 5 and 10 mg/kg i.p.) or vehicle in a Latin square design."}, "rats [2]": {"tested_on": "rats", "details": "in rats; cited from earlier work"}, "[3]": {"details": "WO 2012/107735; cited from earlier work"}, "humans": {"tested_on": "humans", "details": "at pharmaceutically effective dosages; clinical trials for ischemic stroke (Yamaguchi et al); cited from earlier work"}}, "data": [{"smiles": "O=c1c2ccccc2[se]n1-c1ccccc1", "note": "[Ebselen, 2-phenyl-1,2-benzisoselenazol-3(2H)-one]", "values": [{"measurement": "effect on deliberation time", "setting": "healthy participants; ebselen vs placebo", "result": "no significant effects"}, {"measurement": "effect on quality of decision making", "setting": "healthy participants; ebselen vs placebo", "result": "no significant effects"}, {"measurement": "effect on reward seeking/risk taking", "setting": "healthy participants; ebselen vs placebo", "result": "increase"}, {"measurement": "effect on risk adjustment", "setting": "healthy participants; ebselen vs placebo", "result": "no significant effects"}, {"measurement": "effect on delay aversion", "setting": "healthy participants; ebselen vs placebo, irrespective of probability of favourable outcome and token ratio", "result": "significant decrease"}, {"measurement": "Delay aversion (%), Mean ± SEM", "setting": "healthy participants; human, ebselen 6x200 mg in three doses over two days, final dose around 3 hrs before testing, vs placebo p = 0.010", "result": "9.0 ± 2.14", "unit": "%"}, {"measurement": "Reward seeking (%), Mean ± SEM", "setting": "healthy participants; human, same regimen, vs placebo p = 0.046", "result": "63.9 ± 1.45", "unit": "%"}, {"measurement": "Risk adjustment, Mean ± SEM", "setting": "healthy participants; human, same regimen, vs placebo p = 0.107", "result": "2.1 ± 0.18"}, {"measurement": "Deliberation time (ms), Mean ± SEM", "setting": "healthy participants; human, same regimen, vs placebo p = 0.131", "result": "1408 ± 78", "unit": "ms"}, {"measurement": "Quality of decision making (%), Mean ± SEM", "setting": "healthy participants; human, same regimen, vs placebo p = 0.155", "result": "99.3 ± 0.3", "unit": "%"}, {"measurement": "premature responses", "setting": "rats [1]; ebselen 2 mg/kg i.p. vs vehicle, p=0.052", "result": "decreased premature responses"}, {"measurement": "response latency (increase in time to respond)", "setting": "rats [1]; ebselen 2 mg/kg, paired t-test, p=0.056", "result": "trend"}, {"measurement": "reward latency (time taken to collect rewards)", "setting": "rats [1]; ebselen 2 mg/kg, p=0.024", "result": "significant increase"}, {"measurement": "premature responses", "setting": "rats [1]; ebselen 5 mg/kg i.p. vs vehicle, p=0.077", "result": "decreased trend"}, {"measurement": "response latency (increase in time to respond)", "setting": "rats [1]; ebselen 5 mg/kg, paired t-test, p=0.028", "result": "significant"}, {"measurement": "reward latency", "setting": "rats [1]; ebselen 5 mg/kg, p=0.069", "result": "trend increase"}, {"measurement": "premature responses", "setting": "rats [1]; ebselen 10 mg/kg i.p. vs vehicle, p=0.028", "result": "decreased premature responses"}, {"measurement": "response latency", "setting": "rats [1]; ebselen 10 mg/kg, paired t-test, p=0.246", "result": "no significant effect"}, {"measurement": "reward latency (time taken to collect rewards)", "setting": "rats [1]; ebselen 10 mg/kg, p=0.005", "result": "significant increase"}, {"measurement": "reward latency", "setting": "rats [1]; ebselen 2, 5, 10 mg/kg i.p., overall ANOVA, p=0.062", "result": "no effect"}, {"measurement": "response latency", "setting": "rats [1]; ebselen 2, 5, 10 mg/kg i.p., overall ANOVA, p=0.090", "result": "no effect"}, {"measurement": "number of trials completed during the sessions", "setting": "rats [1]; ebselen 2, 5, 10 mg/kg i.p., p=0.546", "result": "no effect"}, {"measurement": "choice behaviour", "setting": "rats [1]; ebselen 2, 5, 10 mg/kg i.p., p=0.596", "result": "no effect"}, {"measurement": "premature responses", "setting": "rats [1]; ebselen 2, 5 and 10 mg/kg i.p. overall, p=0.088", "result": "overall trend to decreased premature responses"}, {"measurement": "LD50 concentration", "setting": "rats [2]", "result": "greater than 1000 mg/kg"}, {"measurement": "transfer across the blood/brain barrier", "setting": "[3]", "result": "capable of transferring across the blood/brain barrier"}, {"measurement": "toxicity in humans", "setting": "humans", "result": "sufficiently non-toxic"}]}]}
